Assays:
[1] = tested on: interferon-stimulated genes IFIH1, ISG20, CXCL9, and CD74; assay: IFNG induction of interferon-stimulated genes, RT-qPCR in MB135 cells with doxycycline-inducible transgenes; type: cell-based, human; conditions: MB135 cells, doxycycline-induced transgene, continuous protocol, IFNG 16 h
Procedure: (§1) All myoblast experiments were conducted in immortalized MB135 or MB200 myoblast cell lines (isolated from a control or FSHD2 subject, respectively cultured in Ham's F-10 Nutrient Mix (Gibco) supplemented with 15% fetal bovine serum (Hyclone), 100 U/100 μg/ml penicillin/streptomycin (Gibco), 1 μM dexamethasone (Sigma), and 10 ng/ml recombinant human basic fibroblast growth factor (PeproTech). To differentiate the myoblasts to myotubes, media was changed to DMEM supplemented with 10 μg/ml insulin (Sigma) and 10 μg/ml transferrin (Sigma). Cell lines containing doxycycline-inducible transgenes were additionally cultured with 2 μg/mL puromycin (Sigma). Transgenes were induced with 1 μg/mL of doxycycline (Sigma) for 4 hours prior to other treatments for a total of 20 hrs. The Kitra-SRS cells (RRID:CVCL_YI69) were provided by Dr. H. Otani and Osaka University (Nakai et al., 2019) and were cultured in DMEM supplemented with 10% fetal bovine serum (Hyclone) and 100 U/100 μg/ml penicillin/streptomycin (Gibco). Biological replicates consisted of independent but parallel experiments, such as simultaneously stimulating three cell culture plates with IFNγ. Technical replicates consisted of repeat measurements of the same biological sample, such as loading the same biological sample in triplicate for analysis by RT-qPCR.
(§2) Myoblasts were transfected with either (final concentrations) 10 μM 2′,3′-cGAMP (Sigma Aldrich), 2 μg/mL poly(I:C) (Invitrogen), or 1 μg/mL 3′ppp-dsRNA RIG-I ligand (Dan Stetson Lab, UW) using Lipofectamine 2000 according to manufacturer's protocol, or were stimulated with 1000U IFNβ (PeproTech) or 200 ng/ml IFNγ (R+D Systems) by addition directly to cell culture medium. After 16 hours of immune stimulation, RNA was collected from cells using the NucleoSpin RNA Kit (Macherey-Nagel) according to manufacturer's instructions. RNA samples were quantified by nanodrop and 1 μg of RNA per sample was treated with DNase I Amplification Grade (Thermo Fisher), and then synthesized into cDNA using the Superscript IV First-Strand Synthesis System, including oligo dT primers (Invitrogen). qPCR was run in 384-well plates on an Applied Biosystems QuantStudio 6 Flex Real-Time PCR System (ABI) and analyzed in Microsoft Excel.

[2] = tested on: ZSCAN4; assay: Activation of DUX4 target gene ZSCAN4, RT-qPCR; type: cell-based, human; conditions: MB135 cells ± doxycycline
Procedure: as §1, §2

[3] = tested on: MHC-I, PSMB8, PSMB9, and PSMB10; assay: Immunoblot of IFNG-induced MHC-I and immunoproteasome protein in MB135 myoblasts treated with inhibitors; type: cell-based, human; conditions: MB135 myoblasts without DUX4 induction, agent then IFNG 16 h; 4EGI-1 at 50 uM
Procedure: To test if mTOR inactivation was sufficient to block MHC-I and immunoproteasome protein levels in the absence of DUX4, parental MB135 myoblasts were treated with mTOR inhibitors everolimus or Torin2. Everolimus is a second-generation rapamycin analog with binding specificity for mTORC1. […] To further validate the role of 4EBP1 in blocking MHC-I and immunoproteasome protein expression, MB135 cells were treated with 4EGI-1, a small molecule that pharmacologically mimics 4EBP function and inhibits eIF4E.
Protein samples were harvested in RIPA buffer [150 mM NaCl, 1% NP-40, 0.5% Na-deocycholate, 1% SDS, 25 mM Tris-HCl pH7.4] supplemented with protease and phosphatase inhibitor tablets (Pierce), followed by sonication in Diagenode Bioruptor. Lysate was cleared by centrifugation at 16000×g and quantified using a Pierce BCA assay (Thermo Fisher Scientific). Samples were run on NuPAGE precast polyacrylamide gels (Invitrogen) and transferred to PVDF membrane. Membranes were blocked in PBS containing 0.1% Tween-20 and 5% non-fat dry milk before overnight incubation at 4° C. with primary antibodies (see resource table for a list of antibodies used in this study). Membranes were incubated with horseradish peroxidase-conjugated secondary antibodies for 1 hour at room temperature and SuperSignal chemiluminescent substrate (Thermo Scientific) was used for detection on film with a Mini-medical 90 processor. Membranes were stripped with Restore Western Blot Stripping Buffer (Pierce).

[4] = tested on: proteins that co-immunoprecipitated with DUX4-CTD constructs expressed in MB135 myoblasts; assay: LC-MS of proteins co-immunoprecipitated with DUX4-CTD (Table 1) and western validation; type: binding, human; parameters: key to 4. mL1dL2 + Dox + IFNG / 4. + IFNG mix / 4. longCTD + Dox + IFNG / 3. + IFNg + Dox longCTD / 3. + Dox longCTD / 3. + IFNG longCTD: peptide-spectrum matches (PSMs) per protein; conditions: for 4. longCTD + Dox + IFNG: LC-MS counts of the listed protein co-immunoprecipitated with DUX4-CTD bait longCTD; for 3. + IFNg + Dox longCTD / 3. + Dox longCTD / 3. + IFNG longCTD: bait longCTD; for 3. + IFNg + Dox longCTD: experiment 3, IFNg + Dox; for SUM of PSMS: sum over all samples; for 3. + Dox longCTD: experiment 3, Dox only; for 3. + IFNG longCTD: experiment 3, IFNG only, no doxycycline (bait at background level)
Description: As an unbiased method to identify proteins that interact with the C-terminal region of DUX4, liquid chromatography mass spectroscopy (LC-MS) was used to identify proteins that co-immunoprecipitated with DUX4-CTD constructs expressed in MB135 myoblasts. In the first experiment, MB135iDUX4-CTD cells were used, either untreated, treated with doxycycline alone, or with both doxycycline and IFNG. In the second experiment, MB135iDUX4-CTD and MB135iDUX4mL1dL2 cells were used, both treated with doxycycline and IFNG, compared to these two cell lines untreated and combined as a control. Proteins with a minimum of 2 peptide spectrum matches (PSMs) in at least one sample that were identified in both experiments were assigned to one of ten categories (see Methods) to separate candidate interactors from other categories that might be co-purified because of obligate interactions (e.g., proteasome or ribosome) or might be less likely to be physiologically relevant (e.g., cytoskeletal proteins). Candidate interactors were then ranked based on the total PSMs for that protein across all samples.
Centrifugation at 2500 rcf at 4° C. for 5 min pelleted the nuclei, supernatant was discarded, and nuclei resuspended in 1 mL IP buffer pH 7.4 (25 mM Tris-HCl pH 7.5, 175 mM NaCl, 1 mM EDTA, 0.2% NP-40, 5% glycerol) and incubated for 1 hour at 4° C. with rotation then spun at 21000 rcf for 10 minutes at 4° C. to pellet insoluble debris. Protein concentration was determined using the Pierce BCA Protein Assay Kit (ThermoFisher, 23225). An equivalent amount of protein per sample was pre-cleared with Dynabeads Protein G (Invitrogen) bound to mouse IgG (Abcam #131368) for 1 hour at 4° C. with rotation. FLAG-tagged constructs were then immunoprecipitated with Dynabeads Protein G beads coupled to mouse anti-FLAG M2 mAb (Sigma F3165) for 3 hours at 4° C. with rotation. Beads were washed 3× with 1 mL IP buffer and eluted by adding 2× NuPage LDS Sample Buffer (Thermo Fisher, diluted from 4× with PBS) to the beads and heating for 10 minutes at 70° C.
For LC-MS, anti-FLAG immunoprecipitation was performed with beads cross-linked to the anti-FLAG antibody and the proteins competitively eluted with FLAG peptide. Eluted protein samples were electrophoresed into a NuPage 4-12% Bis-Tris gel, excised, and processed by the Fred Hutchinson Cancer Research Center Proteomics Core. Samples were reduced, alkylated, digested with trypsin, desalted, and run on the Orbitrap Eclipse Tribid Mass Spectrometer (Thermo Fisher). Proteomics data were analyzed using Proteome Discoverer 2.4 against a Uniprot human database that included common contaminants using Sequest HT and Percolator for scoring. […] Proteins that were identified in at least one sample from both independent experiments with at least 2 PSMs in one sample were assigned to one of ten categories: 1, candidates; 2, cytoskeletal associated; 3, cytoskeletal; 4, ribosome/translation associated; 5, proteasome associated; 6, membrane or extracellular; ER, golgi, or vesicle associated; 8, lipid metabolism; 9, chaperones; 10, nuclear import or nuclear membrane associated. The proteins in category 1 were further investigated for interactions with DUX4.

[5] = LC-MS counts of the listed protein co-immunoprecipitated with DUX4-CTD bait mL1dL2, experiment 4, Dox + IFNG
[6] = LC-MS value per protein co-immunoprecipitated from MB135 myoblasts, + IFNG mix sample (no Dox), kind of count not given
[7] = LC-MS value per protein co-immunoprecipitated with DUX4-CTD construct mL1dL2 in MB135 myoblasts, + Dox + IFNG, kind of count not given

Row | Molecule | 4. longCTD + Dox + IFNG ([4]; experiment 4, Dox + IFNG) | 3. + IFNg + Dox longCTD [4] | SUM of PSMS [4] | 3. + Dox longCTD [4] | 4. mL1dL2 + Dox + IFNG [4, 7] | also measured
1 | iDUX4mL1: DUX4 transgene mutating the first (L)LxxL(L) motif, SEQ ID NO: 99 (PCGLLAAEAAASPEFLQQAQPLLETEAPGELEASEEAASLEAPLSEEEYRALLEEL) |  |  |  |  |  | suppression of IFNG induction of ISGs (IFIH1, ISG20, CXCL9, CD74) [1]: partial activity, suppressing 3 of the 4 ISGs; transcriptional activation of DUX4 target gene ZSCAN4 [2]: failed to activate the DUX4 target ZSCAN4
2 | COc1ccc(C[C@H](NC(=O)[C@H](C)NC(=O)CN2CCOCC2)C(=O)N[C@@H](Cc2ccccc2)C(=O)C2(C)CO2)cc1 (stereo in doubt) [ONX-0914] |  |  |  |  |  | effect on IFNG-induced MHC-I and immunoproteasome protein in the absence of DUX4 [3]: did not reduce IFNG-induced MHC-I levels
3 | iDUX4dL2: DUX4 transgene deleting the second (L)LxxL(L) motif, SEQ ID NO:100 (PCGLLLDELLASPEFLQQAQPLLETEAPGELEASEEAASLEAPLSEEYRA) |  |  |  |  |  | suppression of IFNG induction of ISGs (IFIH1, ISG20, CXCL9, CD74) [1]: lost the ability to suppress the panel of ISGs; transcriptional activation of DUX4 target gene ZSCAN4 [2]: failed to activate the DUX4 target ZSCAN4
4 | P50990 | 3 | 2 | 6 |  |  | 4. mL1dL2 + Dox + IFNG [4, 5]: 1
5 | P08238 | 10 | 14 | 32 | 2 |  | 4. mL1dL2 + Dox + IFNG [4, 5]: 6
6 | P07900 | 10 | 9 | 30 |  |  | 4. mL1dL2 + Dox + IFNG [4, 5]: 5; 4. + IFNG mix ([4]; LC-MS counts of the listed protein in anti-FLAG co-IP, experiment 4, IFNG, no doxycycline, mix, MB135 myoblasts): 6
7 | TUBA1B |  |  |  |  | 24 | 4. + IFNG mix [4, 6]: 9
8 | Q15208 | 6 |  | 11 |  |  | 3. + IFNG longCTD [4]: 1
9 | P61978 | 6 | 8 | 31 | 2 |  | 
10 | HNRNPU |  |  |  |  | 1 | 
11 | AHNAK |  |  |  |  |  | 4. + IFNG mix [4, 6]: 1
12 | PPP2R1A |  |  |  |  | 5 | 
13 | FN1 |  |  |  |  |  | 4. + IFNG mix [4, 6]: 3
14 | P78527 | 2 | 18 | 39 | 3 |  | 
15 | P4HB |  |  |  |  | 20 | 4. + IFNG mix [4, 6]: 9
16 | NES |  |  |  |  | 1 | 4. + IFNG mix [4, 6]: 6
17 | P68363 |  |  | 55 | 22 |  | 
18 | P17661 | 12 | 15 | 84 | 9 |  | 3. + IFNG longCTD [4]: 14
19 | P26641 | 1 | 6 | 11 | 3 |  | 

Row | Molecule | 4. longCTD + Dox + IFNG ([4]; experiment 4, Dox + IFNG) | 3. + IFNg + Dox longCTD [4] | SUM of PSMS [4] | 3. + Dox longCTD [4] | 4. mL1dL2 + Dox + IFNG [4, 7] | also measured
20 | P07237 | 14 | 5 | 51 | 3 |  | 
21 | P35579 | 4 | 242 | 387 | 122 |  | 3. + IFNG longCTD [4]: 8
22 | PABPC1 |  |  |  |  | 5 | 
23 | P68371 | 100 | 70 | 283 | 42 |  | 3. + IFNG longCTD [4]: 11
24 | PLEC |  |  |  |  | 16 | 4. + IFNG mix [4, 6]: 3
25 | P50991 | 1 | 1 | 5 |  |  | 4. mL1dL2 + Dox + IFNG [4, 5]: 3
26 | P40763 |  | 3 | 5 | 1 |  | 
27 | ENO1 |  |  |  |  | 3 | 4. + IFNG mix [4, 6]: 6
28 | P78371 | 4 | 1 | 7 |  |  | 4. mL1dL2 + Dox + IFNG [4, 5]: 2
29 | P49368 | 2 | 1 | 7 |  |  | 4. mL1dL2 + Dox + IFNG [4, 5]: 4
30 | P08670 | 55 | 45 | 290 | 42 |  | 3. + IFNG longCTD [4]: 39
31 | VIM |  |  |  |  | 43 | 4. + IFNG mix [4, 6]: 66
32 | P06748 |  | 8 | 16 | 2 |  | 
33 | PSMD2 |  |  |  |  | 3 | 4. + IFNG mix [4, 6]: 1
34 | DES |  |  |  |  | 10 | 4. + IFNG mix [4, 6]: 24
35 | STK38 |  |  |  |  |  | 4. + IFNG mix [4, 6]: 4
36 | PSMA6 |  |  |  |  | 4 | 
37 | P02751 |  | 48 | 68 | 17 |  | 
38 | P16989 |  | 3 | 11 | 1 |  | 
